In ChEMBL document CHEMBL1155466, “Structure-activity relationships of 6-methyl-benzo[b]thiophene-2-carboxylic acid (1-[(S)-1-benzyl-4-[4-(tetrahydropyran-4-ylmethyl)piperazin-1-yl]butylcarbamoyl]cyclopentyl)amide, potent antagonist of the neurokinin-2 receptor” (J Med Chem, 2010):
Active and inactive are the calls of the source. No cut-off for these calls is given here.

Tests used:
[1] = biological target: T1, Substance-K receptor (Cavia porcellus) (UniProt Q64077); assay: Antagonist activity at NK2 receptor in Dunkin-Hartley guinea pig colon smooth muscle assessed as inhibition of [beta-Ala8]NKA(4-10)-induced tissue contraction in presence of NK1 receptor antagonist SR-140333; assay type: functional, tissue-based
T1 sequence (whole entry): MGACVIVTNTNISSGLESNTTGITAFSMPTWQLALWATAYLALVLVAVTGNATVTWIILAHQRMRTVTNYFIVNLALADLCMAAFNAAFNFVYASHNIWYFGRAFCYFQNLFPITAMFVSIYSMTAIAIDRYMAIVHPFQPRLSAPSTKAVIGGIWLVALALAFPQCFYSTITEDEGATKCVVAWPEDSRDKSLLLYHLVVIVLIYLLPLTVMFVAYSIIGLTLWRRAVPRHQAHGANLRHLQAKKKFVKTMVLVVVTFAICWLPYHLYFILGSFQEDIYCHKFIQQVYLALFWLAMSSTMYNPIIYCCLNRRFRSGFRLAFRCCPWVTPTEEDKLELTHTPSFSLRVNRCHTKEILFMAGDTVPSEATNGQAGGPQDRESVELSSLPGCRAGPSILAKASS

[2] = Apparent permeability from apical to basolateral side of human Caco-2 cells at 100 uM
Cavia porcellus = assay: Inhibition of [beta-Ala8]NKA(4-10)-induced colonic contractions in Dunkin-Hartley guinea pig at 3 umol/kg, iv after 4 hrs relative to control; assay type: functional
Substance-K receptor [3] = biological target: T2, Substance-K receptor (Homo sapiens, UniProt P21452); assay: Antagonist activity at NK2 receptor in human urinary bladder assessed as inhibition of [beta-Ala8]NKA(4-10)-induced tissue contractions; assay type: functional; details: read-out: pA2 (converted)
T2 sequence (P21452 whole entry): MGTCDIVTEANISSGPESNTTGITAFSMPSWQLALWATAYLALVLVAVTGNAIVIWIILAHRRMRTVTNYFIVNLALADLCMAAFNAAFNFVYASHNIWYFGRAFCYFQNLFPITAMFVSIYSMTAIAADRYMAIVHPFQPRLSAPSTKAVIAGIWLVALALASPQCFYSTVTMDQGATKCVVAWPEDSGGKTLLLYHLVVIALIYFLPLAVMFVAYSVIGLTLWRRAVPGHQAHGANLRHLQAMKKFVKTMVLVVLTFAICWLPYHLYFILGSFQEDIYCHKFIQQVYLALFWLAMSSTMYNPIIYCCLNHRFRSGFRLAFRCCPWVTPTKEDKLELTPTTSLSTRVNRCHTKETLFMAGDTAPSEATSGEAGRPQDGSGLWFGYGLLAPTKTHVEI

Homo sapiens = assay: Inhibition of [beta-Ala8]NKA(4-10)-induced colonic contractions […] at 10 umol/kg, id relative to control; assay type: functional, organism-based
Substance-K receptor [4] = biological target: T2, Substance-K receptor; assay: Displacement of [3H]neurokinin A from human NK2 receptor

`Cc1ccc2cc(C(=O)NC3(C(=O)N[C@@H](CCCN4CCN(CC5CCOCC5)CC4)Cc4ccccc4)CCCC3)sc2c1` showed a pKb [1] of 8.6, a Papp A→B at 100 µM [2] of 11.2 ×10⁻⁶ cm/s and an Imax (Cavia porcellus) of 100%. For the same molecule, the Kb (Substance-K receptor [3]) was 200 pM and the Activity (Homo sapiens) was “Active”.

Molecule `O=C(NC1(C(=O)N[C@@H](CCCN2CCN(CC3CCOCC3)CC2)Cc2ccccc2)CCCC1)c1cc2cc(Cl)ccc2o1` has a Ki (Substance-K receptor [4]) of 251 pM, a pKb [1] of 7.6 and a Papp A→B at 100 µM [2] of 13.7 ×10⁻⁶ cm/s. For the same molecule, the Imax (Cavia porcellus) was 100%.
